Structures can show the parent of a compound that is named as a salt.
Columns and labels:
[1] = Stability of prodrug in fresh EDTA blood (rat); details: Rat EDTA blood
Procedure: (§2) The stability of Iab was studied in fresh blood and serum from rat, dog, monkey and human (n=2). The blood was collected in vacutainers containing K2EDTA (Becton Dickinson, Franklin Lakes, N.J.). The serum was collected in vacutainers containing no anticoagulant. Iab was incubated at a starting concentration of approximately 10 μM for 60-90 min at 37° C. Serial samples were taken at the pre-determined times. Aliquots of blood samples (200 μL) were first mixed with 100 μL of water followed by 400 μL of acetonitrile. The serum samples (50 μL) were added into microtainers containing K2EDTA (Becton Dickinson, Franklin Lakes, N.J.) followed by the addition of 100 μL of acetonitrile. The supernatant was analyzed for both Iab and IVa by LC/MS/MS. The stability of Ibb was studied in fresh blood and serum from rat, dog, monkey and human (n=2). The blood was collected in vacutainers containing K2EDTA (Becton Dickinson, Franklin Lakes, N.J.). The serum was collected in vacutainers containing no anticoagulant. Ibb was incubated at a starting concentration of approximately 15 μM for 90 min at 37° C. Serial samples were taken at the pre-determined times. Aliquots of blood samples (200 μL) were first mixed with 100 μL of water followed by 400 μL of acetonitrile. The serum samples (50 μL) were added into microtainers containing K2EDTA (Becton Dickinson, Franklin Lakes, N.J.) followed by the addition of 100 μL of acetonitrile. […] The stability of Icb was studied in fresh blood and serum from rat, dog, monkey and human (n=2). The blood was collected in vacutainers containing K2EDTA (Becton Dickinson, Franklin Lakes, N.J.). The serum was collected in vacutainers containing no anticoagulant. Icb was incubated at a starting concentration of approximately 10 μM for 90 min at 37° C. Serial samples were taken at the pre-determined times. Aliquots of blood samples (200 μL) were first mixed with 100 μL of water followed by 400 μL of acetonitrile. The serum samples (50 μL) were added into microtainers containing K2EDTA (Becton Dickinson, Franklin Lakes, N.J.) followed by the addition of 100 μL of acetonitrile.

[2] = Stability (hydrolysis) of prodrug in fresh serum (monkey); details: Monkey Serum
Procedure: as §2

[3] = Stability (hydrolysis) of prodrug in fresh serum (dog); details: Dog Serum
Procedure: as §2

[4] = Stability (hydrolysis) of prodrug in fresh serum (rat); details: Rat Serum
Procedure: as §2

[5] = Stability of prodrug in fresh EDTA blood (human); details: Human EDTA blood
[6] = Stability (hydrolysis) of prodrug in fresh serum (human); details: Human Serum
[7] = Stability of prodrug in fresh EDTA blood (monkey); details: Monkey EDTA blood
Procedure: as §2

[8] = test system: HIV-1 T-tropic strain LAI; experiment: Antiviral assay: HIV-1 LAI infection of MT-2 cells, reverse transcriptase readout (EC50, Table 48); format: cell-based; details: Human immunodeficiency virus 1, MT2; read-out: EC50-LAI
From the text: The materials and experimental procedures used to assess the anti-HIV activity of the parent compounds which are generated from the prodrugs in vivo are described below:
• The human T cell line MT-2 and PM1 (AIDS Research and Reference Reagent Program, National Institutes of Health) were maintained and propagated in Medium RPMI-1640 (Invitrogen, Carlsbad, Calif.), containing 10% fetal Bovine serum. (FBS, Sigma, St. Louis, Mo.).
• Laboratory strains of HIV-1—the T-tropic strain LAI was obtained through the AIDS Research and Reference Reagent Program, National Institutes of Health. It was amplified in MT-2 cells and titered using a virus yield assay (2). Detection was achieved through use of a reverse transcriptase assay (3), adapted for use with a Scintillation Proximity detection protocol (1) (Amersham Biosciences, Piscataway, N.J.).
• 1. Compounds stocks were prepared by dissolving in DMSO to 30 mM. For dilution plates, compounds were serially diluted 3-fold into DMSO, using 96-well polypropylene plates, so that the concentrations were 100-fold greater than the final assay concentration. For antiviral and cytotoxicity assays, 2 μl was added per well (1% final DMSO concentration). • 2. Compounds were added from dilution plates to 96 well tissue culture plates, containing 100 μl Medium RPMI-1640, containing 10% fetal bovine serum at a concentration of <20 μM. • 3. For antiviral assays, cells were infected at a multiplicity of infection of 0.005. After 1 h at 37° C., infected cells were diluted to 200,000 cells per ml in Medium RPMI-1640, containing 10% fetal bovine serum. 100 μl of this solution was added per well, giving a final volume of 200 μl. • 4. Plates were incubated at 37° C. in a humidified CO2 incubator and harvested after 5 days. • 5. Viral infections were monitored by measuring reverse transcriptase activity in the supernatants of infected wells as described above. The percent inhibition for each compound was calculated by quantifying the readout level in cells infected in the presence of each compound as a percentage of that observed for cells infected in the absence of compound and subtracting such a determined value from 100. • 6. An EC50 provides a method for comparing the antiviral potency of the compounds of this invention. The effective concentration for fifty percent inhibition (EC50) was calculated with the Microsoft Excel Xlfit curve fitting software. For each compound, curves were generated from percent inhibition calculated at 8 different concentrations by using a four paramenter logistic model (model 205).

[9] = Stability of prodrug in fresh EDTA blood (dog)
[10] = Stability of prodrug in Tris-HCl buffer
Procedure: The stability of Iab was also evaluated, as described above, in Tris-HCl buffer (0.1 M, pH 7.5). The stability of Ibb was also evaluated, as described above, in Tris-HCl buffer (0.1 M, pH 7.5). The stability of Icb was also evaluated, as described above, in Tris-HCl buffer (0.1 M, pH 7.5).

in vitro [11] = details: monkey, serum
Procedure: as §2

dog hepatocytes = experiment: Hydrolysis of prodrug in hepatocytes (dog); format: in vitro ADME
Procedure: (§1) The in vitro intrinsic clearance of Ibb in hepatocytes (Clint) was calculated as follows: Clint(μL/min/million cells)=Rate/CE where Rate is the rate of metabolism in hepatocytes (pmol/min/million cells), and CE is the concentration of Ibb in the incubation. The in vitro intrinsic clearance of Icb in hepatocytes (Clint) was calculated as follows: Clint(μL/min/million cells)=Rate/CE where Rate is the rate of metabolism in hepatocytes (pmol/min/million cells), and CE is the concentration of Icb in the incubation.

in vitro [12] = details: dog, serum
Procedure: as §2

monkey hepatocytes = experiment: Hydrolysis of prodrug in hepatocytes (monkey); format: in vitro ADME
Procedure: as §1

COc1ncc(OC)c2c(C(=O)C(=O)N3CCN(C(=O)c4ccccc4)CC3)c[nH]c12 [IVa, N-(benzoyl)-N′-[(4,7-dimethoxy-6-azaindol-3-yl)-oxoacetyl]piperazine]
% IVa Formed (of starting concentration of Iab) ([1]; 0 min): 0.24%
Iab / IVa Formed ([1]; 37°C, 0 min): 0.019 µM
% IVa Formed (of starting concentration of Iab) ([1]; 20 min): 0.70%
Iab / IVa Formed ([1]; 20 min): 0.056 µM
% IVa Formed (of starting concentration of Iab) ([1]; 40 min): 0.90%
Iab / IVa Formed ([1]; 40 min): 0.072 µM
% IVa Formed (of starting concentration of Iab) ([1]; 60 min): 1.2%
Iab / IVa Formed ([1]; 60 min): 0.093 µM
Iab / IVa Formed ([2]; 37°C, 0 min): 0.20 µM
Iab / IVa Formed ([2]; 15 min): 0.48 µM
Iab / IVa Formed ([2]; 30 min): 0.75 µM
Iab / IVa Formed ([2]; 45 min): 1.2 µM
Iab / IVa Formed ([2]; 60 min): 1.5 µM
Iab / IVa Formed ([2]; 90 min): 2.0 µM
Iab / IVa Formed ([3]; 37°C, 0 min): 0.066 µM
Iab / IVa Formed ([3]; 15 min): 0.85 µM
Iab / IVa Formed ([3]; 30 min): 1.6 µM
Iab / IVa Formed ([3]; 45 min): 2.5 µM
Iab / IVa Formed ([3]; 60 min): 3.2 µM
Iab / IVa Formed ([3]; 90 min): 4.4 µM
Iab / IVa Formed ([4]; 37°C, 0 min): 0.25 µM
Iab / IVa Formed ([4]; 15 min): 1.1 µM
Iab / IVa Formed ([4]; 30 min): 1.8 µM
Iab / IVa Formed ([4]; 45 min): 2.8 µM
Iab / IVa Formed ([4]; 60 min): 3.7 µM
Iab / IVa Formed ([4]; 90 min): 5.4 µM
% IVa Formed (of starting concentration of Iab) ([5]; 0 min): 0.55%
Iab / IVa Formed ([5]; 0 min): 0.061 µM
% IVa Formed (of starting concentration of Iab) ([5]; 15 min): 0.59%
Iab / IVa Formed ([5]; 15 min): 0.067 µM
% IVa Formed (of starting concentration of Iab) ([5]; 30 min): 0.50%
Iab / IVa Formed ([5]; 30 min): 0.057 µM
% IVa Formed (of starting concentration of Iab) ([5]; 45 min): 0.65%
Iab / IVa Formed ([5]; 45 min): 0.073 µM
% IVa Formed (of starting concentration of Iab) ([5]; 60 min): 0.75%
Iab / IVa Formed ([5]; 60 min): 0.084 µM
Iab / IVa Formed ([6]; 37°C, 0 min): 0.10 µM
Iab / IVa Formed ([6]; 15 min): 0.10 µM
Iab / IVa Formed ([6]; 30 min): 0.15 µM
Iab / IVa Formed ([6]; 45 min): 0.20 µM
Iab / IVa Formed ([6]; 60 min): 0.24 µM
Iab / IVa Formed ([6]; 90 min): 0.32 µM
% IVa Formed (of starting concentration of Iab) ([7]; 0 min): 0.13%
Iab / IVa Formed ([7]; 0 min): 0.011 µM
% IVa Formed (of starting concentration of Iab) ([7]; 20 min): 0.28%
Iab / IVa Formed ([7]; 20 min): 0.024 µM
% IVa Formed (of starting concentration of Iab) ([7]; 40 min): 0.48%
Iab / IVa Formed ([7]; 40 min): 0.041 µM
% IVa Formed (of starting concentration of Iab) ([7]; 60 min): 0.56%
Iab / IVa Formed ([7]; 60 min): 0.048 µM
EC50 [8]: < 1000 nM
% IVa Formed (of starting concentration of Iab) ([9]; Dog A EDTA blood (Table 15), 0 min): 0.30%
% IVa Formed (of starting concentration of Iab) ([9]; Dog A EDTA blood (Table 15), 20 min): 2.4%
% IVa Formed (of starting concentration of Iab) ([9]; Dog A EDTA blood (Table 15), 40 min): 4.1%
% IVa Formed (of starting concentration of Iab) ([9]; Dog A EDTA blood (Table 15), 60 min): 6.2%
% IVa Formed (of starting concentration of Iab) ([9]; Dog A EDTA blood (repeat), 0 min): 0.63%
% IVa Formed (of starting concentration of Iab) ([9]; Dog A EDTA blood (repeat), 15 min): 2.3%
% IVa Formed (of starting concentration of Iab) ([9]; Dog A EDTA blood (repeat), 30 min): 3.4%
% IVa Formed (of starting concentration of Iab) ([9]; Dog A EDTA blood (repeat), 45 min): 4.8%
% IVa Formed (of starting concentration of Iab) ([9]; Dog A EDTA blood (repeat), 60 min): 6.1%
% IVa Formed (of starting concentration of Iab) ([9]; Dog B EDTA blood, 0 min): 0.68%
% IVa Formed (of starting concentration of Iab) ([9]; Dog B EDTA blood, 15 min): 2.0%
% IVa Formed (of starting concentration of Iab) ([9]; Dog B EDTA blood, 30 min): 3.5%
% IVa Formed (of starting concentration of Iab) ([9]; Dog B EDTA blood, 45 min): 4.5%
% IVa Formed (of starting concentration of Iab) ([9]; Dog B EDTA blood, 60 min): 5.8%
Iab / IVa Formed ([10]; Tris-HCl buffer (0.1 M, pH 7.5), 37°C, 0 min): 0.011 µM
% IVa Formed (of starting concentration of Iab) ([10]; Tris-HCl buffer, 0 min): 0.11%
% IVa Formed (of starting concentration of Iab) ([10]; Tris-HCl buffer, 20 min): 0.081%
Iab / IVa Formed ([10]; Tris-HCl buffer, 20 min): 0.008 µM
% IVa Formed (of starting concentration of Iab) ([10]; Tris-HCl buffer, 40 min): 0.076%
Iab / IVa Formed ([10]; Tris-HCl buffer, 40 min): 0.008 µM
% IVa Formed (of starting concentration of Iab) ([10]; Tris-HCl buffer, 60 min): 0.088%
Iab / IVa Formed ([10]; Tris-HCl buffer, 60 min): 0.009 µM

O=C(C(=O)N1CCN(C(=O)c2ccccc2)CC1)c1c[nH]c2c(-n3ccnn3)ncc(F)c12 [IVb]
EC50 [8]: < 1000 nM

COc1cnc(-n2cnc(C)n2)c2[nH]cc(C(=O)C(=O)N3CCN(C(=O)c4ccccc4)CC3)c12 [IVc]
EC50 [8]: < 1000 nM

COc1cnc(-n2cnc(C)n2)c2c1c(C(=O)C(=O)N1CCN(C(=O)c3ccccc3)CC1)cn2COP(=O)(O)O [Icb, [3-[(4-benzoylpiperazin-1-yl)(oxo)acetyl]-4-methoxy-7-(3-methyl-1H-1,2,4-triazol-1-yl)-1H-pyrrolo[2,3-c]pyridin-1-yl]methyl dihydrogen phosphate, 2-amino-2-(hydroxymethyl)propane-1,3-diol salt (1:1)]
half-life at 10 μM (in vitro [11]): 0.5 h
hydrolysis in the presence of hepatocytes (dog hepatocytes): hydrolyzed
half-life at 10 μM (in vitro [12]): 2.6 h
hydrolysis in the presence of hepatocytes (monkey hepatocytes): No turnover was observed

— patent publication US20150315218A1, “SALTS OF PRODRUGS OF PIPERAZINE AND SUBSTITUTED PIPERIDINE ANTIVIRAL AGENTS” (Bristol-Myers Squibb Company, priority 2004, published 2015)
